Literature values, collected in patent US5399360A, “Pharmaceutical compositions” (Sandoz Pharmaceuticals Corp., priority 1986, dated 1995).

Conditions: described in German Patent 2,111,071

## CN1CCC(=C2c3ccccc3CC(=O)c3sccc32)CC1 [Ketotifen, 4-(1-methyl-4-piperidylidene)-4H-benzo[4,5]cyclohepta[1,2-b]thiophen-10(9H)-one]
  pharmacological properties: anti-anaphylacticand anti-histamine properties
